From US9872875B2, “Component and method for treating viral disease” (Institut Pasteur of Shanghai, Chinese Academy of Sciences, priority 2012, dated 2018)

Experiments:
RD cells = assay: Cytotoxicity to RD cells (Celltiter Glo); assay type: cell-based
Method: Cytotoxicity to RD cells at different E02 concentrations was measured using Celltitr Glo reagents as follows:
(1) Cells seeding: 24 h prior to testing, RD cells were seeded in 96-well cell culture plates at 5×10^4 per well;
(2) Cells incubated with E02: medium was removed from cell culture plates, 180 μl of DMEM containing 2% FBS was added, and then added 20 μl of DMEM solution with corresponding concentration of E02, placed in 37° C., 5% CO2 incubator for incubation;
(3) After cultured for 46 h, cellular ATP levels were measured using the PROMEGA Celltitr Glo reagents according to reagent instructions.
PPADS is an E02 analog (Khakh, Burnstock et al., 2001; Burnstock 2004; Coddou, Yan et al. 2011) and has a similar inhibitory effect on P2X subtypes to that of E02. RD cells were infected with EV71 clinical isolate FY 573 at different PPADS concentrations to determine the inhibitory effect of PPADS on EV71 replication. Detailed procedure is the same as that in “1” of Example 1. In addition, cytotoxicity to RD cells at each concentration of PPADS was determined. Detailed procedure is the same as that in “1” of Example 6.

EV71 = assay: Inhibition of EV71 replication in RD cells at 0.1, 1, 10 and 100 μM (CPE, crystal violet); assay type: cell-based, Enterovirus 71; conditions: Table 8, antagonists
In short: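 RD cells infected with EV71 and treated at 0.1, 1, 10 and 100 μM were incubated 3˜4 days, crystal violet-stained and inspected microscopically for CPE. Cytotoxicity was checked in parallel by culturing uninfected RD cells with compound for 3˜4 days and examining cell-layer damage.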

P2X3 receptor = target: T1, P2X3 receptor (Homo sapiens, UniProt P56373); conditions: Table 8, antagonists; cited from earlier work
T1 sequence (P56373 1-397): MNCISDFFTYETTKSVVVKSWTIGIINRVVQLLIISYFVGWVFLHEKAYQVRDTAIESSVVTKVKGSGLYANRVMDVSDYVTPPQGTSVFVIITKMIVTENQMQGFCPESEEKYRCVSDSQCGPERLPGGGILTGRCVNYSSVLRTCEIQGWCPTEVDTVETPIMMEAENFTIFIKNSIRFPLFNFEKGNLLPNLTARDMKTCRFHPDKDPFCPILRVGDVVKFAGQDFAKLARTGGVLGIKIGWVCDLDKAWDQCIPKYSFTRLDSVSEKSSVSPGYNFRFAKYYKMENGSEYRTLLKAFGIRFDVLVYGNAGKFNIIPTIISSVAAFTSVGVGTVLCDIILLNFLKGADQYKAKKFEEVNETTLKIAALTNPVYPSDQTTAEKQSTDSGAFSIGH

P2X5 receptor = P2X5 receptor (Homo sapiens, UniProt Q93086); conditions: Table 8, antagonists; cited from earlier work
P2X7 receptor = target: T2, P2X7 receptor (Homo sapiens, UniProt Q99572); conditions: Table 8, antagonists; cited from earlier work
T2 sequence (Q99572 1-595): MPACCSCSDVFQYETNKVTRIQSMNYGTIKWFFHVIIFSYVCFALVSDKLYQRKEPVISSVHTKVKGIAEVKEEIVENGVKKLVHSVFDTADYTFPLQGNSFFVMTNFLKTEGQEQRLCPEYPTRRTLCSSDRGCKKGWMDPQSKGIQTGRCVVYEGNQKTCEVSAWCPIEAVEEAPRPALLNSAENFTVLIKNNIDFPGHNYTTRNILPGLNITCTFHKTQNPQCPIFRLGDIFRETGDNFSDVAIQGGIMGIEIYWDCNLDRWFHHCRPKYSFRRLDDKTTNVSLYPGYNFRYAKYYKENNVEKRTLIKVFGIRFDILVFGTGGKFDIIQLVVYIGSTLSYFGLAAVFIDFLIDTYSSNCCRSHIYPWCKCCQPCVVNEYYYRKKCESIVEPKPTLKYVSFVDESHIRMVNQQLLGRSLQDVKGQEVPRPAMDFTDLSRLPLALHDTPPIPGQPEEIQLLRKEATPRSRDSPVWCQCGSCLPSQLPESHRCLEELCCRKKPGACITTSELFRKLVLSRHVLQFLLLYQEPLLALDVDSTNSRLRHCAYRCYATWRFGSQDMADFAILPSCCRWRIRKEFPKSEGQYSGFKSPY

Sequence of P2X5 receptor (Q93086 whole entry): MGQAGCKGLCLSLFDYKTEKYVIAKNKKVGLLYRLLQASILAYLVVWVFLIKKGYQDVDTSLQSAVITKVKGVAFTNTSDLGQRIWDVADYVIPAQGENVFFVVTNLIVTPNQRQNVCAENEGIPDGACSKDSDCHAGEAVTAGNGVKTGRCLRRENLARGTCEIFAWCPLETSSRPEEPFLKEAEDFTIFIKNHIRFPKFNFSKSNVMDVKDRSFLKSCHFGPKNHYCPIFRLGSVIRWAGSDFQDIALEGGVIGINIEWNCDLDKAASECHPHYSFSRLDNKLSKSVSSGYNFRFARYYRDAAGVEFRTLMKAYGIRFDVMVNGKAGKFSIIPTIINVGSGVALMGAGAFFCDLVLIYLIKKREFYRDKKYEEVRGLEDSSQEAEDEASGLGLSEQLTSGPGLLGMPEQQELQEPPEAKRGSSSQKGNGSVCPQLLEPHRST

Row | SMILES | cytotoxicity to RD cells (RD cells; 1×10^−6 to 1×10^4 μM of E02, 46 h, cellular ATP) | Inhibition of EV71 replication (EV71) | P2X receptors 3 (P2X3 receptor) | P2X receptors 5 (P2X5 receptor) | P2X receptors 7 (P2X7 receptor) | concentrations not cytotoxic to RD cells (RD cells; PPADS)
1 | Cc1ccc(C(=O)Nc2ccc(S(=O)(=O)O)c3cc(S(=O)(=O)O)cc(S(=O)(=O)O)c23)cc1NC(=O)c1cccc(NC(=O)Nc2cccc(C(=O)Nc3cc(C(=O)Nc4ccc(S(=O)(=O)O)c5cc(S(=O)(=O)O)cc(S(=O)(=O)O)c45)ccc3C)c2)c1 [E02, Suramin Sodium] | no cytotoxicity | + (+: inhibitory concentration >300 nM) | + (+: inhibitory concentration >300 nM) | ++ (++: inhibitory concentration = 10~300 nM) | − | 
2 | Cc1nc(N=Nc2ccc(S(=O)(=O)O)cc2S(=O)(=O)O)c(COP(=O)(O)O)c(C=O)c1O [PPADS, pyridoxal-phosphate-6-azophenyl-2′, 4′-disulphonic acid] |  | + (+: inhibitory concentration >300 nM) | ++ (++: inhibitory concentration = 10~300 nM) | ++ (++: inhibitory concentration = 10~300 nM) | + (+: inhibitory concentration >300 nM) | lower than 64 μM
